From patent publication US20150252047A1, “SUBSTITUTED INDAZOL-PYRROLOPYRIMIDINES USEFUL IN THE TREATMENT OF HYPERPROLIFERATIVE DISEASES” (BAYER PHARMA AKTIENGESELLSCHAFT, priority 2012, published 2015) come the findings set out here.

pIC50: −log10 of the molar value. A value given as a limit tells only on which side of the number the result lay.

T1 sequence (Q9BUB5 1-424 isoform Q9BUB5-2 T344D): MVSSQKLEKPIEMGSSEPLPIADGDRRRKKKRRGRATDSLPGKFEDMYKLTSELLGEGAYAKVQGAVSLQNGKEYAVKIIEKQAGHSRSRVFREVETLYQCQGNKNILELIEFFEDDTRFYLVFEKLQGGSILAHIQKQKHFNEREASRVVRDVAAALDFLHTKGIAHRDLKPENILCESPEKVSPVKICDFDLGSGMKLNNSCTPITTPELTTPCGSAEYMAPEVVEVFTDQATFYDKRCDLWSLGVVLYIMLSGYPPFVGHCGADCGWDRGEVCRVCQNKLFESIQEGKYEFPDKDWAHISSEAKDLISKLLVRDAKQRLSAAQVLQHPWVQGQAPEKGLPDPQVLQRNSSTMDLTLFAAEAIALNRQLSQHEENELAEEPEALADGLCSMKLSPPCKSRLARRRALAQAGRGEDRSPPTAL

The assay has as its target T1, human full-length MKNK1 (Homo sapiens, UniProt Q9BUB5, T385D).
T1 construct: GST (N); purchased Carna Biosciences 02-145; host or cells: insect cells (baculovirus expression system)
The assay is described as follows: MKNK1 kinase high ATP assay (TR-FRET). It is filed as biochemical. To be noted: high ATP (2 mM final), 15 min preincubation with enzyme, 30 min reaction at 22° C. On the procedure: MKNK1-inhibitory activity at high ATP of compounds of the present invention after their preincubation with MKNK1 was quantified employing the TR-FRET-based MKNK1 high ATP assay as described in the following paragraphs.
A recombinant fusion protein of Glutathione-S-Transferase (GST, N-terminally) and human full-length MKNK1 (amino acids 1-424 and T344D of accession number BAA 19885.1), expressed in insect cells using baculovirus expression system and purified via glutathione sepharose affinity chromatography, was purchased from Carna Biosciences (product no 02-145) and used as enzyme. As substrate for the kinase reaction the biotinylated peptide biotin-Ahx-IKKRKLTRRKSLKG (C-terminus in amide form) was used, which can be purchased e.g. from the company Biosyntan (Berlin-Buch, Germany).
For the assay 50 nL of a 100 fold concentrated solution of the test compound in DMSO was pipetted into a black low volume 384 well microtiter plate (Greiner Bio-One, Frickenhausen, Germany), 2 μL of a solution of MKNK1 in aqueous assay buffer [50 mM HEPES pH 7.5, 5 mM MgCl2, 1.0 mM dithiothreitol, 0.005% (v/v) Nonidet-P40 (Sigma)] was added and the mixture was incubated for 15 min at 22° C. to allow pre-binding of the test compounds to the enzyme before the start of the kinase reaction. Then the kinase reaction was started by the addition of 3 μL of a solution of adenosine-tri-phosphate (ATP, 3.3 mM=>final conc. in the 5 μL assay volume is 2 mM) and substrate (0.1 μM=>final conc. in the 5 μL assay volume is 0.06 μM) in assay buffer and the resulting mixture was incubated for a reaction time of 30 min at 22° C. The concentration of MKNK1 was adjusted depending of the activity of the enzyme lot and was chosen appropriate to have the assay in the linear range, typical concentrations were in the range of 0.003 μg/mL. The reaction was stopped by the addition of 5 μL of a solution of TR-FRET detection reagents (5 nM streptavidine-XL665 [Cisbio Bioassays, Codolet, France] and 1 nM anti-ribosomal protein S6 (pSer236)-antibody from Invitrogen [#44921G] and 1 nM LANCE EU-W1024 Labeled ProteinG [Perkin-Elmer, product no. AD0071]) in an aqueous EDTA-solution (100 mM EDTA, 0.1% (w/v) bovine serum albumin in 50 mM HEPES pH 7.5).
The resulting mixture was incubated for 1 h at 22° C. to allow the formation of complex between the phosphorylated biotinylated peptide and the detection reagents. Subsequently the amount of phosphorylated substrate was evaluated by measurement of the resonance energy transfer from the Eu-chelate to the streptavidine-XL. Therefore, the fluorescence emissions at 620 nm and 665 nm after excitation at 350 nm were measured in a TR-FRET reader, e.g. a Rubystar (BMG Labtechnologies, Offenburg, Germany) or a Viewlux (Perkin-Elmer). The ratio of the emissions at 665 nm and at […] was taken as the measure for the amount of phosphorylated substrate. The data were normalised (enzyme reaction without inhibitor=0% inhibition, all other assay components but no enzyme=100% inhibition).
(TR-FRET usually uses a lanthanide donor and a delayed reading to cut background.)
`COc1cc2[nH]ncc2cc1Nc1ncnc2[nH]cc(C)c12` [Example 39, N-(6-Methoxy-1H-indazol-5-yl)-5-methyl-7H-pyrrolo[2,3-d]pyrimidin-4-amine] showed a negative logarithm of the IC50 (pIC50) of 9.00.

`COc1cc2[nH]ncc2cc1Nc1ncnc2[nH]c(C(=O)N(C)CCN(C)Cc3ccccc3)c(Br)c12` [Example 62, N-{2-[Benzyl(methyl)amino]ethyl}-5-bromo-4-[(6-methoxy-1H-indazol-5-yl)amino]-N-methyl-7H-pyrrolo[2,3-d]pyrimidine-6-carboxamide] had a pIC50 of 8.40. As for `CCOC(=O)c1[nH]c2ncnc(Nc3cc4cn[nH]c4cc3OC)c2c1Br` [Example 47, Ethyl 5-bromo-4-[(6-methoxy-1H-indazol-5-yl)amino]-7H-pyrrolo[2,3-d]pyrimidine-6-carboxylate], the pIC50 was > 9.00. Consider `CC(C)Oc1cc2[nH]ncc2cc1Nc1ncnc2[nH]c(CCCO)cc12` [Example 33, 3-(4-{[6-(Propan-2-yloxy)-1H-indazol-5-yl]amino}-7H-pyrrolo[2,3-d]pyrimidin-6-yl)propan-1-ol], for which the negative-log IC50 (pIC50) was 7.46. Next, `COc1cc2[nH]ncc2cc1Nc1ncnc2[nH]c(C(=O)O)c(Br)c12` [Example 48, 5-Bromo-4-[(6-methoxy-1H-indazol-5-yl)amino]-7H-pyrrolo[2,3-d]pyrimidine-6-carboxylic acid]: > 9.00; `CC(C)NC(=O)c1c[nH]c2ncnc(Nc3cc4cn[nH]c4cc3F)c12` [Example 18, 4-[(6-Fluoro-1H-indazol-5-yl)amino]-N-(propan-2-yl)-7H-pyrrolo[2,3-d]pyrimidine-5-carboxamide]: 8.05.

For `COc1cc2[nH]ncc2cc1Nc1ncnc2[nH]c(C(=O)N3C[C@H]4C[C@@H]3CO4)c(Br)c12` [Example 65, {5-Bromo-4-[(6-methoxy-1H-indazol-5-yl)amino]-7H-pyrrolo[2,3-d]pyrimidin-6-yl}[(1R,4R)-2-oxa-5-azabicyclo[2.2.1]hept-5-yl]methanone], the pIC50 is 8.40.

Broadly, the pIC50 is −log10 of the IC50, conventionally taken in molar units. Read a high pIC50 as a small IC50.
